Test results: a melting point compilation (Tetko et al.)
Non-standard residues stand in square brackets, D forms with d. Residues, ends and D or L forms follow the SMILES beside them. *: point of attachment. Phe(2-Me) = Cc1ccccc1C[CH](N)C(=O)O; Tle = CC(C)(C)[CH](N)C(=O)O; X3 = CC(C)(C)OC(=O)CCC(=O)*; X4 = CCC(N*)C(OC)OC; OtBu = CC(C)(C)O*

CCCCCCCCCCCCCCCCCCCCCCCCCC(C)=CCCC(C)=CCCC(C)=CCCC(C)=CCCC(C)=CCCC(C)=CCCC(C)=CCCC(C)=CCCC(C)=CCOC(=O)C1CCCCC1
melting point: 34 to 35 °C

CC(C)(C)OC(=O)N(CNCCNC(=O)CCOCC(COCCC(=O)NCCNCN(C(=O)OC(C)(C)C)C(=O)OC(C)(C)C)(COCCC(=O)NCCNCN(C(=O)OC(C)(C)C)C(=O)OC(C)(C)C)NC(=O)OCc1ccccc1)C(=O)OC(C)(C)C
melting point: 86 to 88 °C

CCCCC(CC)CN1C(=O)C(=c2[nH]c(=c3[nH]c(=C4C(=O)N(CC(CC)CCCC)C(=O)N(CC(CC)CCCC)C4=O)c4ccccc34)c3ccccc23)C(=O)N(CC(CC)CCCC)C1=O (centres undefined)
melting point: 198 to 206 °C

CCCc1[nH]c2ccccc2c1C1(c2ccc(N(CC)CC)cc2OCCOCCOc2cc(N(CC)CC)ccc2C2(c3c(CCC)[nH]c4ccccc34)OC(=O)c3ccccc32)OC(=O)c2ccccc21 (centres undefined)
melting point: 191 to 194 °C

CCCCCCCCCCOc1cc(OCCCCCCCCCC)cc(N(CC(=O)OCOC(C)=O)CC(=O)OCOC(C)=O)c1
melting point: 37 to 39 °C

COc1ccc(C(CCCC(C(=O)C(CCCC(c2ccc(OC)c(OC)c2)N2C(=O)c3ccccc3C2=O)N2C(=O)c3ccccc3C2=O)N2C(=O)c3ccccc3C2=O)N2C(=O)c3ccccc3C2=O)cc1OC (centres undefined)
melting point: 195 °C

CC(CCCCCCCCCCCCc1scc(Br)c1Br)C(=O)C(C)CCCCCCCCCCCCc1scc(Br)c1Br (centres undefined)
melting point: 50 to 52 °C

CCOC(=O)[C@@H](CCC(=O)N1c2ccccc2C[C@H]1C(=O)OCC)NC(=O)[C@H](CCCCNSc1ncccc1[N+](=O)[O-])NC(=O)OCc1ccc2c(c1)OCO2
melting point: 130 to 135 °C

CCOCCCO
melting point: 5.2 °C

Clc1c(Br)c(Cl)c(COCc2c(Cl)c(Br)c(Cl)c(Br)c2Br)c(Br)c1Br
melting point: 274 to 276 °C

[C-]#[N+]C(=CC=C1C=C(c2ccccc2)C=C(c2ccccc2)O1)C(=O)OCC
melting point: 150 to 152 °C

CC(C)(CCCCCCCCC(C)(C)NC(=O)C(C)(C)Cc1cc(C(C)(C)C)c(O)c(C(C)(C)C)c1)NC(=O)C(C)(C)Cc1cc(C(C)(C)C)c(O)c(C(C)(C)C)c1
melting point: 126 °C

NS(=O)(=O)c1cccc(-c2noc(-c3cnn4ccc(-c5ccc(C(F)(F)F)cc5)nc34)n2)c1
melting point: 270 °C

COc1cc(OC)c(/C=C/C(c2ccc(OC)c(NC(=N)N)c2)S(=O)(=O)C(/C=C/c2c(OC)cc(OC)cc2OC)c2ccc(OC)c(NC(=N)N)c2)c(OC)c1 (centres undefined)
melting point: 174 to 176 °C

CC(=O)N1C(C)(C)CC(OC(=O)C(Cc2cc(C)c(O)c(C(C)(C)C)c2)(Cc2cc(C)c(O)c(C(C)(C)C)c2)C(=O)OC2CC(C)(C)N(C(C)=O)C(C)(C)C2)CC1(C)C
melting point: 189 °C

OCCOc1ccc(-c2ccc(OCCO)cc2)cc1
melting point: 201 to 202 °C

CCCNc1nc2cccc(C(=O)OCC)c2n1Cc1ccc(-c2ccccc2-c2nnn[nH]2)cc1
melting point: 170 to 172 °C

CCc1nc2c(N)nc3cc(OCCCc4cccnc4)ccc3c2s1
melting point: 172 to 173 °C

O=C(O)CN1CCN(CC(=O)O)CCN(CC(=O)Nc2c(I)cc(I)c(C(=O)O)c2I)CCN(CC(=O)O)CC1
melting point: 235 °C

CCN(CC)CCN=S(=O)(c1cccs1)c1cccs1
melting point: 131 °C

Cc1ccc(S(=O)(=O)N2CCN(S(=O)(=O)c3ccc(C)cc3)CCN(S(=O)(=O)c3ccc(C)cc3)CC(CC(C)C)N(S(=O)(=O)c3ccc(C)cc3)CCN(S(=O)(=O)c3ccc(C)cc3)CC2)cc1 (centres undefined)
melting point: 142 to 145 °C

CC(C)(C)OC(=O)CC[C@H](NC(=O)CNC(=O)[C@H](CSC(c1ccccc1)(c1ccccc1)c1ccccc1)NC(c1ccccc1)(c1ccccc1)c1ccccc1)C(=O)OC(C)(C)C
melting point: 98 to 110 °C

CCCCCCCCCCCCCCCCCC(=O)OCC=C(C)CCC=C(C)CCC=C(C)CCC=C(C)CCC=C(C)CCC=C(C)CCC=C(C)CCC=C(C)CCC=C(C)C
melting point: 36 to 37 °C

CCC(NC(=O)C(CC(C)C)NC(=O)C(NC(=O)C(Cc1ccccc1C)NC(=O)C(CCC(=O)OC(C)(C)C)NC(=O)C(CC(=O)OC(C)(C)C)NC(=O)CCC(=O)OC(C)(C)C)C(C)(C)C)C(OC)OC (X3-D(OtBu)E(OtBu)[Phe(2-Me)][Tle]L-X4; configuration not given here)
melting point: 242 to 244 °C

CCCCCCCCCCCCN1C(=O)NC2(CC(C)(C)N(CC(O)COc3ccc(C(C)(C)c4ccc(OCC(O)CN5C(C)(C)CC6(CC5(C)C)NC(=O)N(CCCCCCCCCCCC)C6=O)cc4)cc3)C(C)(C)C2)C1=O (centres undefined)
melting point: 159 to 161 °C

CC(=O)OCC1OC(n2cc(C3=C(c4cn(S(=O)(=O)c5ccccc5)c5ncccc45)C(=O)N(COCc4ccccc4)C3=O)c3cccnc32)C(OC(C)=O)C(OC(C)=O)C1OC(C)=O (centres undefined)
melting point: 108 to 110 °C

Cc1nc(-c2cncc(F)c2)sc1NC(=O)C(C)CS(C)(=O)=NC#N (centres undefined)
melting point: 75 to 81 °C

CC(=O)OC12COC1CC(O)C1(C)C(=O)C(O)C3=C(C)C(OC(=O)C(O)C(NC(=O)OC(C)(C)C)c4ccccc4)CC(O)(C(OC(=O)c4ccccc4)C21)C3(C)C (centres undefined)
melting point: 196 to 203 °C

C[C@H](CCN(CCCCNC(=O)[C@@H](NC(=O)CCCCCCNC(=NC(=O)OCc1ccccc1)NC(=O)OCc1ccccc1)O[C@@H](C)c1ccc2ccccc2c1)C(=O)OCc1ccccc1)NC(=O)OCc1ccccc1
melting point: 58 °C
